Data: paper PMC12525650, “Pharmacokinetic Profile of Extracts from the Chayote (Sechium edule) H387 07 Hybrid and Phytochemical Characterization of Its Segregant H387 M16 for Potential Therapeutic Applications” (Molecules, 2025)
Read-outs that look alike come from different tables or passages of the source.

Key:
in vivo = experiment: in vivo; parameters: species or system female CD-1 mice (Mus musculus L.)
Experimental: Pharmacokinetic parameters were evaluated in female CD-1 mice (Mus musculus L.) provided by the vivarium of the Faculty of Higher Studies, Zaragoza, National Autonomous University of Mexico. All mice were clinically healthy, approximately 12 weeks old, and weighed ~30 g. […] Female mice were selected as the available cohort from the institutional vivarium, and their use allowed us to establish baseline pharmacokinetic parameters under standardized conditions. […] Animals were randomly assigned to treatment groups. Treatment allocation and sample collection were blinded. All experimental procedures were approved by the Research Ethics Committee of the Faculty of Higher Studies, Zaragoza (FESZ/CEI/1/1/5/27/23).
For the HPLC quantification of metabolites, concentrations were expressed as µg/mL for serum and urine and as µg/mg of tissue for liver samples. The results were translated into graphical form using the identified metabolites. The Cmax and time to reach maximum concentration (Tmax) of the secondary metabolites were obtained directly from the concentration–time curve.
The area under the plasma concentration–time curve from time zero to the last measurable concentration ( AUC0−t ) was calculated using the linear trapezoidal rule, according to the following formula: AUC0−t=∑i=1n−1Ci+Ci+1/2×ti+1−ti where Ci and Ci+1 are the plasma concentrations at consecutive time points ti and ti+1 . The total area under the curve ( AUC0−∞ ) was obtained as the sum of AUC0−t and the extrapolated area from the last measurable concentration to infinity, calculated as:(1) AUC0−∞=AUC0−t+Clast/kel where Clast is the final observed concentration and kel is the terminal final elimination constant estimated from the slope of the log-linear portion of the concentration–time curve.

[1] = cited from earlier work
[2] = cited from earlier work; remark: listed apart in the source
[3] = female, CD-1, mouse, in vivo, po, 8 mg/kg
[4] = mice, serum, oral extract 8, 125, 250 mg/kg, 1, 6, 24, 48 h
[5] = mice, liver, oral extract 8, 125, 250 mg/kg, 1, 6, 24, 48 h
[6] = mice, oral extract 8, 125, 250 mg/kg, 1, 6, 24, 48 h
[7] = mice, plasma, oral extract 8 mg/kg

Q: For `O=c1cc(-c2ccc(O)cc2)oc2cc(O)cc(O)c12` [Apigenin], which AUC (in vivo; [3]) is on record?
A: Its AUC is 2390 ± 210 ng·h/mL.

Q: What about the AUC(0-t) (in vivo; [3]) of the same molecule?
A: The AUC(0-t) was 2120 ng·h/mL.

Q: And the Clearance (in vivo; [3])?
A: Its Clearance is 13.7 mL/min/kg.

Q: What about the Cmax (in vivo; [3]) of the same molecule?
A: Its Cmax is 850 ± 70 ng/mL.

Q: And the T1/2 (in vivo; [3])?
A: The T1/2 was “greater than 5.6 h”.

Q: And the Vd (in vivo; [3])?
A: The Vd was 3.4 ± 0.5 L/kg.

Q: What about the half-life (in vivo; female, CD-1, mouse, in vivo, po, 8 mg/kg, T1/2) of the same molecule?
A: The half-life was 5.6 ± 0.3 h.

Q: And the Tmax (in vivo; female, CD-1, mouse, in vivo, po, 8 mg/kg, Tmax)?
A: Its Tmax is 1.5 ± 0.3 h.

Q: And the “serum concentration, change with dose and time” value (from here on “serum concentration, change”) (in vivo; [4])?
A: The value was “significantly increased with the 125 mg/kg doses at 24 and 48 h”.

Q: And the T1/2 ([1]; reported in rats)?
A: The T1/2 was 1.8 to 4.2 h.

Q: What does the source list for `CC(C)(O)/C=C/C(=O)[C@](C)(O)[C@H]1[C@H](O)C[C@@]2(C)[C@@H]3CC=C4[C@@H](C[C@H](O)C(=O)C4(C)C)[C@]3(C)C(=O)C[C@]12C` [CuD, Cucurbitacin D]?
A: Tmax (in vivo; female, CD-1, mouse, in vivo, mice, serum/plasma, oral extract 125 mg/kg, read-out: Tmax): 24 h; liver concentration, change with dose and time (in vivo; [5]): no significant variations

Q: Which results are given for `CC(C)(O)/C=C/C(=O)[C@](C)(O)[C@H]1[C@H](O)C[C@@]2(C)[C@@H]3CC=C4[C@@H](C=C(O)C(=O)C4(C)C)[C@]3(C)C(=O)C[C@]12C` [CuI, cucurbitacin I]?
A: liver concentration, change with dose and time (in vivo; [5]): no significant variations; liver concentration (in vivo; mice, liver, oral extract 125 and 250 mg/kg): > 20 µg/mg; serum concentration, change with dose and time (in vivo; [4]): concentrations remained near the limit of quantification

Q: Which “liver concentration, change with dose and time” value (from here on “liver concentration, change”) (in vivo; [5]) does the source give for `CC(=O)OC(C)(C)CCC(=O)[C@](C)(O)[C@H]1[C@H](O)C[C@@]2(C)[C@@H]3CC=C4[C@@H](C[C@H](O)[C@@H](O)C4(C)C)[C@]3(C)C(=O)C[C@]12C` [CuIIA, cucurbitacin IIA] here?
A: Its value is “remained significant for up to 48 h with the 250 mg/kg treatment”.

Q: And the “serum Tmax” value (in vivo; mice, serum, across all doses (8, 125, 250 mg/kg))?
A: The value was 24 h.

Q: And the “serum concentration, change” value (in vivo; [4])?
A: Its value is “transient decrease to near-zero concentrations at 6 h, followed by a marked increase at 24 h”.

Q: And the “urine concentration, change with dose and time” value (from here on “urine concentration, change”) (in vivo; [6])?
A: Its value is “high concentrations were observed in urine”.

Q: And the “time of absorption (Tmax) in previous reports” value [2]?
A: The value was ~ 20 min.

Q: Which Cmax (in vivo; female, CD-1, mouse, in vivo, po, 8 mg/kg, read-out: Cmax) does the source give for `CC(=O)OC(C)(C)/C=C/C(=O)[C@](C)(O)[C@H]1[C@H](O)C[C@@]2(C)[C@@H]3CC=C4[C@@H](C=C(O)C(=O)C4(C)C)[C@]3(C)C(=O)C[C@]12C` [Cucurbitacin E, cucurbitacin E] here?
A: The Cmax was 420 ng/mL.

Q: What about the Tmax (in vivo; female, CD-1, mouse, in vivo, mice, plasma, oral extract 8 mg/kg, Table S1, unit inferred, read-out: Tmax) of the same molecule?
A: The Tmax was 2.5 ± 0.3 h.

Q: What about the AUC(0-t) (in vivo; female, CD-1, mouse, in vivo, mice, plasma, oral extract 8 mg/kg, read-out: AUC0−t) of the same molecule?
A: Its AUC(0-t) is 1450 ± 110 ng·h/mL.

Q: And the AUC (in vivo; female, CD-1, mouse, in vivo, mice, plasma, oral extract 8 mg/kg, read-out: AUC0 ∞)?
A: Its AUC is 1800 ng·h/mL.

Q: What about the half-life (in vivo; female, CD-1, mouse, in vivo, mice, plasma, oral extract 8 mg/kg, read-out: T1/2 (converted)) of the same molecule?
A: The half-life was 8.4 ± 1.2 h.

Q: What about the “liver concentration, change” value (in vivo; [5]) of the same molecule?
A: The value was “no significant variations”.

Q: What about the Clearance (in vivo; [7]) of the same molecule?
A: Its Clearance is 10.8 mL/min/kg.

Q: And the Vd (in vivo; [7])?
A: The Vd was 4.8 L/kg.

Q: What about the “urine concentration, change” value (in vivo; [6]) of the same molecule?
A: The value was “clear increase under the 8 mg/kg treatment”.

Q: And the peak plasma concentration ([2]; at 2 h post-dose)?
A: The peak plasma concentration was “approximately 0.009 µg/mL”.

Q: For `O=C1C[C@@H](c2ccc(O)cc2)Oc2cc(O)cc(O)c21` [Naringenin], which “liver concentration, change” value (in vivo; female, CD-1, mouse, in vivo) is on record?
A: The value was “significantly decreased after 24–48 h with the 8 mg/kg dose”.

Q: What does the source list for `O=C(CCc1ccc(O)cc1)c1c(O)cc(O)cc1O` [Phloretin]?
A: liver concentration, change with dose and time (in vivo; female, CD-1, mouse, in vivo): increased significantly with a dose of 125 mg/kg at 6 and 48 h post-treatment; serum concentration, change with dose and time (in vivo; female, CD-1, mouse, in vivo): decreased between 6 and 24 h at 125 mg/kg; Tmax (in vivo; female, CD-1, mouse, plasma, po, 8 mg/kg, mice, plasma, oral extract 8 mg/kg, Table S1, unit inferred, read-out: Tmax): 2 ± 0.4 h; half-life (in vivo; female, CD-1, mouse, plasma, po, 8 mg/kg, mice, plasma, oral extract 8 mg/kg, read-out: T1/2 (converted)): 4.2 ± 0.6 h; Tmax (in vivo; female, CD-1, mouse, plasma, po, 8 mg/kg, mice, plasma, oral extract 8 mg/kg, read-out: Tmax): 4.2 h; Cmax (in vivo; female, CD-1, mouse, plasma, po, 8 mg/kg, read-out: Cmax): 1120 ng/mL; AUC(0-t) (in vivo; female, CD-1, mouse, mice, plasma, oral extract 8 mg/kg, read-out: AUC0−t): 3450 ± 310 ng·h/mL; AUC (in vivo; female, CD-1, mouse, mice, plasma, oral extract 8 mg/kg, read-out: AUC0 ∞): 6100 ng·h/mL; Clearance (in vivo; [7]): 13.7 mL/min/kg; Vd (in vivo; [7]): 0.95 L/kg

Q: Which “serum concentration, change” value (in vivo; [4]) does the source give for `C[C@@H]1O[C@@H](OC[C@H]2O[C@@H](Oc3c(-c4ccc(O)c(O)c4)oc4cc(O)cc(O)c4c3=O)[C@H](O)[C@@H](O)[C@@H]2O)[C@H](O)[C@H](O)[C@H]1O` [Rutin] here?
A: Its value is “marked decrease at the 250 mg/kg dose”.

Q: Which “AUC0−t” value ([1]; rat, in vivo, iv) does the source give for `O=c1cc(-c2ccc(O)cc2)oc2cc(O[C@@H]3O[C@H](CO)[C@@H](O)[C@H](O)[C@H]3O)cc(O)c12` [apigenin-7-O-β-D-glucoside, reference compound] here?
A: Its value is 680 to 1560 ng·h/mL.

Q: Which “urine concentration, change” value (in vivo; [6]) does the source give for `COc1ccc([C@@H]2CC(=O)c3c(O)cc(O[C@@H]4O[C@H](CO[C@@H]5O[C@@H](C)[C@H](O)[C@@H](O)[C@H]5O)[C@@H](O)[C@H](O)[C@H]4O)cc3O2)cc1O` [hesperidin] here?
A: Its value is “increased under the 8 mg/kg dose at 6 and 24 h”.
